According to patent US12552766B2, “Pesticidally active azole amide compounds” (SYNGENTA CROP PROTECTION AG, priority 2019, dated 2026):

Experiments:
Type in all cases: in vivo
[1] = system: Diabrotica Balteata (Corn Root Worm); experiment: Example B1: Diabrotica balteata, spray on maize sprouts; conditions: 96 h, application rate of 200 ppm, L2 larvae, 4 days after infestation, read-out: control in at least one of the two categories (mortality or growth inhibition)
Method in brief: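 Spray test: maize sprouts on agar, aqueous dilutions of 10′000 ppm DMSO stock; after drying, 6–10 L2 larvae/well. Read-out at 4 d post-infestation: mortality and growth inhibition vs untreated.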

[2] = system: Chilo suppressalis (Striped Rice Stemborer); experiment: Example B4: Chilo suppressalis, artificial diet; conditions: 144 h, application rate of 200 ppm, L2 larvae, 6 days after infestation, read-out: control in at least one of the three categories (mortality, anti-feedant effect, or growth inhibition)
Method in brief: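 Artificial diet treated with aqueous dilutions of DMSO stocks (10'000 ppm stock), dried, then infested with 6-8 L2 larvae per well. Mortality, anti-feeding and growth inhibition scored against untreated samples 6 days after infestation. Control counted when any category exceeds untreated.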

[3] = system: Euschistus heros (Neotropical Brown Stink Bug); experiment: Example B2: Euschistus heros, spray on soybean leaves; conditions: 120 h, application rate of 200 ppm, N2 nymphs, 5 days after infestation, read-out: control in at least one of the two categories (mortality or growth inhibition)
Method: Soybean leaves on agar in 24-well microtiter plates were sprayed with aqueous test solutions prepared from 10′000 ppm DMSO stock solutions. After drying the leaves were infested with N2 nymphs. The samples were assessed for mortality and growth inhibition in comparison to untreated samples 5 days after infestation.

[4] = system: Plutella xylostella (Diamond Back Moth); experiment: Example B5: Plutella xylostella, artificial diet, 24-well; conditions: 192 h, application rate of 200 ppm, eggs, 8 days after infestation, read-out: control in at least one of the two categories (mortality or growth inhibition)
Method: 24-well microtiter plates with artificial diet were treated with aqueous test solutions prepared from 10′000 ppm DMSO stock solutions by pipetting. After drying, Plutella eggs were pipetted through a plastic stencil onto a gel blotting paper and the plate was closed with it. The samples were assessed for mortality and growth inhibition in comparison to untreated samples 8 days after infestation.

[5] = system: Spodoptera littoralis (Egyptian Cotton Leaf Worm); experiment: Example B9: Spodoptera littoralis, spray on cotton leaf discs; conditions: foliar, 72 h, application rate of 200 ppm, L1 larvae, 3 days after infestation, read-out: control in at least one of the three categories (mortality, anti-feedant effect, or growth inhibition)
Method in brief: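 Cotton leaf discs on agar were sprayed with aqueous test solutions made from 10′000 ppm DMSO stocks, dried, then infested with five L1 larvae. Mortality, anti-feeding effect and growth inhibition were scored against untreated discs 3 days after infestation; control means any category exceeds untreated.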

[6] = system: Plutella xylostella (Diamondback Moth); experiment: Example B13: Plutella xylostella, artificial diet, 96-well; conditions: 216 h, application rate of 500 ppm, eggs/L1 larvae, 9 days after infestation
Method: 96-well microtiter plates containing artificial diet were treated with aqueous test solutions, prepared from 10′000 ppm DMSO stock solutions, by a liquid handling robot. After drying, eggs (˜30 per well) were infested onto a netted lid which was suspended above the diet. The eggs hatch and L1 larvae move down to the diet. The samples were assessed for mortality 9 days after infestation.

CC(NC(=O)c1cc(Cl)cc(C(F)(F)F)c1)c1nc(Br)nn1-c1ccc(OC(F)F)cn1 (stereo not shown) [Compound P26, N-[1-[5-bromo-2-[5-(difluoromethoxy)-2-pyridyl]-1,2,4-triazol-3-yl]ethyl]-3-chloro-5-(trifluoromethyl) benzamide]
≥ 80%: percent control (mortality or growth inhibition) at 200 ppm [1] | percent control (mortality, anti-feedant effect or growth inhibition) at 200 ppm [2] | percent control (mortality or growth inhibition) at 200 ppm [3] | percent control (mortality or growth inhibition) at 200 ppm [4] | percent control (mortality, anti-feedant effect or growth inhibition) at 200 ppm [5]

CC(NC(=O)c1cc(Cl)cc(C(F)(F)F)c1)c1nc(Br)nn1-c1ncc(OC(F)F)cn1 (stereo not shown) [Compound P29, N-[1-[5-bromo-2-[5-(difluoromethoxy)pyrimidin-2-yl]-1,2,4-triazol-3-yl]ethyl]-3-chloro-5-(trifluoromethyl) benzamide]
≥ 80%: mortality at 500 ppm [6] | percent control (mortality or growth inhibition) at 200 ppm [1] | percent control (mortality, anti-feedant effect or growth inhibition) at 200 ppm [2] | percent control (mortality or growth inhibition) at 200 ppm [4] | percent control (mortality, anti-feedant effect or growth inhibition) at 200 ppm [5]

CC(NC(=O)c1cc(Br)cc(C(F)(F)F)c1)c1nc(Br)nn1-c1ccc(C#N)cn1 (stereo not shown) [Compound P30, 3-bromo-N-[1-[5-bromo-2-(5-cyano-2-pyridyl)-1,2,4-triazol-3-yl]ethyl]-5-(trifluoromethyl) benzamide]
≥ 80%: mortality at 500 ppm [6] | percent control (mortality or growth inhibition) at 200 ppm [1] | percent control (mortality, anti-feedant effect or growth inhibition) at 200 ppm [2] | percent control (mortality or growth inhibition) at 200 ppm [4] | percent control (mortality, anti-feedant effect or growth inhibition) at 200 ppm [5]

CC(NC(=O)c1cc(Cl)cc(C(F)(F)F)c1)c1nc(Br)nn1-c1ccc(C#N)cn1 (stereo not shown) [Compound P31, N-[1-[5-bromo-2-(5-cyano-2-pyridyl)-1,2,4-triazol-3-yl]ethyl]-3-chloro-5-(trifluoromethyl) benzamide]
≥ 80%: mortality at 500 ppm [6] | percent control (mortality or growth inhibition) at 200 ppm [1] | percent control (mortality, anti-feedant effect or growth inhibition) at 200 ppm [2] | percent control (mortality or growth inhibition) at 200 ppm [4] | percent control (mortality, anti-feedant effect or growth inhibition) at 200 ppm [5]

CC(NC(=O)c1cc(C(F)F)cc(C(F)(F)F)c1)c1nc(Br)nn1-c1ncc(OCC(F)F)cn1 (stereo not shown) [Compound P40, N-[1-[5-bromo-2-[5-(2,2-difluoroethoxy)pyrimidin-2-yl]-1,2,4-triazol-3-yl]ethyl]-3-(difluoromethyl)-5-(trifluoromethyl) benzamide]
≥ 80%: mortality at 500 ppm [6] | percent control (mortality or growth inhibition) at 200 ppm [1] | percent control (mortality, anti-feedant effect or growth inhibition) at 200 ppm [2] | percent control (mortality or growth inhibition) at 200 ppm [3] | percent control (mortality or growth inhibition) at 200 ppm [4] | percent control (mortality, anti-feedant effect or growth inhibition) at 200 ppm [5]

CC(NC(=O)c1cc(Br)cc(C(F)(F)F)c1)c1nc(Br)nn1-c1ncc(OCC(F)(F)F)cn1 (stereo not shown) [Compound P41, 3-bromo-N-[1-[5-bromo-2-[5-(2,2,2-trifluoroethoxy)pyrimidin-2-yl]-1,2,4-triazol-3-yl]ethyl]-5-(trifluoromethyl) benzamide]
≥ 80%: mortality at 500 ppm [6] | percent control (mortality or growth inhibition) at 200 ppm [1] | percent control (mortality, anti-feedant effect or growth inhibition) at 200 ppm [2] | percent control (mortality or growth inhibition) at 200 ppm [4] | percent control (mortality, anti-feedant effect or growth inhibition) at 200 ppm [5]

CC(NC(=O)c1cc(C(F)F)cc(C(F)(F)F)c1)c1nc(Br)nn1-c1ncc(OCC(F)(F)F)cn1 (stereo not shown) [Compound P42, N-[1-[5-bromo-2-[5-(2,2,2-trifluoroethoxy)pyrimidin-2-yl]-1,2,4-triazol-3-yl]ethyl]-3-(difluoromethyl)-5-(trifluoromethyl) benzamide]
≥ 80%: mortality at 500 ppm [6] | percent control (mortality or growth inhibition) at 200 ppm [1] | percent control (mortality, anti-feedant effect or growth inhibition) at 200 ppm [2] | percent control (mortality or growth inhibition) at 200 ppm [4] | percent control (mortality, anti-feedant effect or growth inhibition) at 200 ppm [5]

CC(NC(=O)c1cc(C(F)(F)F)cc(C(F)(F)F)c1)c1nc(Br)nn1-c1ncc(OCC(F)(F)F)cn1 (stereo not shown) [Compound P44, N-[1-[5-bromo-2-[5-(2,2,2-trifluoroethoxy)pyrimidin-2-yl]-1,2,4-triazol-3-yl]ethyl]-3,5-bis(trifluoromethyl) benzamide]
≥ 80%: mortality at 500 ppm [6] | percent control (mortality or growth inhibition) at 200 ppm [1] | percent control (mortality, anti-feedant effect or growth inhibition) at 200 ppm [2] | percent control (mortality or growth inhibition) at 200 ppm [4] | percent control (mortality, anti-feedant effect or growth inhibition) at 200 ppm [5]

CC(NC(=O)c1cc(OC(F)F)cc(C(F)(F)F)c1)c1nc(Br)nn1-c1ncc(OCC(F)(F)F)cn1 (stereo not shown) [Compound P45]
≥ 80%: mortality at 500 ppm [6] | percent control (mortality or growth inhibition) at 200 ppm [1] | percent control (mortality, anti-feedant effect or growth inhibition) at 200 ppm [2] | percent control (mortality or growth inhibition) at 200 ppm [4] | percent control (mortality, anti-feedant effect or growth inhibition) at 200 ppm [5]

CC(NC(=O)c1cc(OCC(F)(F)F)cc(C(F)(F)F)c1)c1nc(Br)nn1-c1ncc(OCC(F)(F)F)cn1 (stereo not shown) [Compound P46, N-[1-[5-bromo-2-[5-(2,2,2-trifluoroethoxy)pyrimidin-2-yl]-1,2,4-triazol-3-yl]ethyl]-3-(2,2,2-trifluoroethoxy)-5-(trifluoromethyl) benzamide]
≥ 80%: mortality at 500 ppm [6] | percent control (mortality or growth inhibition) at 200 ppm [1] | percent control (mortality, anti-feedant effect or growth inhibition) at 200 ppm [2] | percent control (mortality or growth inhibition) at 200 ppm [4] | percent control (mortality, anti-feedant effect or growth inhibition) at 200 ppm [5]

CC(NC(=O)c1cc(Cl)cc(C(F)(F)F)c1)c1nc(Br)nn1-c1ccc(OCC(F)F)cn1 (stereo not shown) [Compound P49, N-[1-[5-bromo-2-[5-(2,2-difluoroethoxy)-2-pyridyl]-1,2,4-triazol-3-yl]ethyl]-3-chloro-5-(trifluoromethyl) benzamide]
≥ 80%: mortality at 500 ppm [6] | percent control (mortality or growth inhibition) at 200 ppm [1] | percent control (mortality, anti-feedant effect or growth inhibition) at 200 ppm [2] | percent control (mortality or growth inhibition) at 200 ppm [4] | percent control (mortality, anti-feedant effect or growth inhibition) at 200 ppm [5]

CC(NC(=O)c1cc(C(F)F)cc(C(F)(F)F)c1)c1nc(Br)nn1-c1ccc(OCC(F)F)cn1 (stereo not shown) [Compound P52, N-[1-[5-bromo-2-[5-(2,2-difluoroethoxy)-2-pyridyl]-1,2,4-triazol-3-yl]ethyl]-3-(difluoromethyl)-5-(trifluoromethyl) benzamide]
≥ 80%: mortality at 500 ppm [6] | percent control (mortality or growth inhibition) at 200 ppm [1] | percent control (mortality, anti-feedant effect or growth inhibition) at 200 ppm [2] | percent control (mortality or growth inhibition) at 200 ppm [3] | percent control (mortality or growth inhibition) at 200 ppm [4] | percent control (mortality, anti-feedant effect or growth inhibition) at 200 ppm [5]

CC(=O)c1nc(C(C)NC(=O)c2cc(C(F)(F)F)cc(C(F)(F)F)c2)n(-c2ccc(C#N)cn2)n1 (stereo not shown) [Compound P57, N-[1-[5-acetyl-2-(5-cyano-2-pyridyl)-1,2,4-triazol-3-yl]ethyl]-3,5-bis(trifluoromethyl) benzamide]
≥ 80%: mortality at 500 ppm [6] | percent control (mortality or growth inhibition) at 200 ppm [1] | percent control (mortality, anti-feedant effect or growth inhibition) at 200 ppm [2] | percent control (mortality or growth inhibition) at 200 ppm [4] | percent control (mortality, anti-feedant effect or growth inhibition) at 200 ppm [5]
